SMILES strings stand for the structures. Where only a bound is given, the exact number is not on record here.

The target in assay [1] is T1, Androgen receptor (Rattus norvegicus, UniProt P15207).
T1 sequence (P15207 whole entry): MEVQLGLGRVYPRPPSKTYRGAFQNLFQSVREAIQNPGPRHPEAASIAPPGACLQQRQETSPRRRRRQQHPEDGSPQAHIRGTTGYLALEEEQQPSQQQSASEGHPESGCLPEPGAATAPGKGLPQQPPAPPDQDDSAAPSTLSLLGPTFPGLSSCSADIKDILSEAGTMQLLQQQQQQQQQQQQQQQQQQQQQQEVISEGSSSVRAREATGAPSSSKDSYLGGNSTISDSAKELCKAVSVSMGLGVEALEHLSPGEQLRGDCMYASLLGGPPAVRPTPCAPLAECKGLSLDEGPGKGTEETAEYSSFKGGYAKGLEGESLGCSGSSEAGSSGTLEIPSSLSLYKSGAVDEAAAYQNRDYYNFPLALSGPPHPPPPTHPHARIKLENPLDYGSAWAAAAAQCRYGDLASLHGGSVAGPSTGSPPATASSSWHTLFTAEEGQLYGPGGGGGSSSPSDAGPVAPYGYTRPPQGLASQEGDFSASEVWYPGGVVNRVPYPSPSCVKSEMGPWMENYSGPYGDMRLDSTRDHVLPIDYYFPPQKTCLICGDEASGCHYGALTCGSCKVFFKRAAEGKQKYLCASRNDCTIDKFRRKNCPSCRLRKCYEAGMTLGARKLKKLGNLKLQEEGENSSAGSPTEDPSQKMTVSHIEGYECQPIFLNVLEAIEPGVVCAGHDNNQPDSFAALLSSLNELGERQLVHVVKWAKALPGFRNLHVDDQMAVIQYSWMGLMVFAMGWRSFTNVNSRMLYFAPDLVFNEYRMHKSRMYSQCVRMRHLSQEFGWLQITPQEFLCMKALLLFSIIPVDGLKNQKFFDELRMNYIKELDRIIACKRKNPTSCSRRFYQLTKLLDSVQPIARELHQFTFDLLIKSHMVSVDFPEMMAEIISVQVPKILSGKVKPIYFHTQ
In kind it is functional.

Assay [2] deals with 5-hydroxytryptamine receptor 7 (Homo sapiens, UniProt P34969).
Chain of 5-hydroxytryptamine receptor 7 (P34969 whole entry): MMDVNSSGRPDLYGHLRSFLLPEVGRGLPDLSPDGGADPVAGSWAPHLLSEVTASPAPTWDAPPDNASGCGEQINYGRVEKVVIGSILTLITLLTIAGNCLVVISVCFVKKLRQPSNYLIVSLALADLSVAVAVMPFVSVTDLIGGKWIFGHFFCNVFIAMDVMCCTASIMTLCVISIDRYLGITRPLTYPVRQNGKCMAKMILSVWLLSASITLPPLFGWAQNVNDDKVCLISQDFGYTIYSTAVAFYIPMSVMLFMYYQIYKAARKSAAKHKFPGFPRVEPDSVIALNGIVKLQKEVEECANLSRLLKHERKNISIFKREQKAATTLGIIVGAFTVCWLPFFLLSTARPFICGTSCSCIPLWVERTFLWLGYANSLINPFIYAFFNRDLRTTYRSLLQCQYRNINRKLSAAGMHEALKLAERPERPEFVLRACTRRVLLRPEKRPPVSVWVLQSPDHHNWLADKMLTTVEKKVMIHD
Assay [3] concerns the target T2, Neuropeptide Y receptor type 2 (Homo sapiens, UniProt P49146).
T2 sequence (P49146 whole entry): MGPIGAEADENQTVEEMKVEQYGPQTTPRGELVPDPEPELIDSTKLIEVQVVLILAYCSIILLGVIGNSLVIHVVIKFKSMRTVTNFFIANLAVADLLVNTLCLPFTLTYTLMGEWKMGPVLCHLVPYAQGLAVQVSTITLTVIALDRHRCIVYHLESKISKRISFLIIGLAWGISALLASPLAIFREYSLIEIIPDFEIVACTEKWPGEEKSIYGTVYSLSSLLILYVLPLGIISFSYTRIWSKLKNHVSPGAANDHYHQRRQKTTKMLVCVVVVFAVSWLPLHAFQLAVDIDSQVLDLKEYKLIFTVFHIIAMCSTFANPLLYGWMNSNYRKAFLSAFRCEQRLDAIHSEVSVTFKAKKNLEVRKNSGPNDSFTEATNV

In assay [4] the target is T1, Androgen receptor.
For another assay, the target named is T3, Progesterone receptor (Homo sapiens, UniProt P06401).
T3 sequence (P06401 whole entry): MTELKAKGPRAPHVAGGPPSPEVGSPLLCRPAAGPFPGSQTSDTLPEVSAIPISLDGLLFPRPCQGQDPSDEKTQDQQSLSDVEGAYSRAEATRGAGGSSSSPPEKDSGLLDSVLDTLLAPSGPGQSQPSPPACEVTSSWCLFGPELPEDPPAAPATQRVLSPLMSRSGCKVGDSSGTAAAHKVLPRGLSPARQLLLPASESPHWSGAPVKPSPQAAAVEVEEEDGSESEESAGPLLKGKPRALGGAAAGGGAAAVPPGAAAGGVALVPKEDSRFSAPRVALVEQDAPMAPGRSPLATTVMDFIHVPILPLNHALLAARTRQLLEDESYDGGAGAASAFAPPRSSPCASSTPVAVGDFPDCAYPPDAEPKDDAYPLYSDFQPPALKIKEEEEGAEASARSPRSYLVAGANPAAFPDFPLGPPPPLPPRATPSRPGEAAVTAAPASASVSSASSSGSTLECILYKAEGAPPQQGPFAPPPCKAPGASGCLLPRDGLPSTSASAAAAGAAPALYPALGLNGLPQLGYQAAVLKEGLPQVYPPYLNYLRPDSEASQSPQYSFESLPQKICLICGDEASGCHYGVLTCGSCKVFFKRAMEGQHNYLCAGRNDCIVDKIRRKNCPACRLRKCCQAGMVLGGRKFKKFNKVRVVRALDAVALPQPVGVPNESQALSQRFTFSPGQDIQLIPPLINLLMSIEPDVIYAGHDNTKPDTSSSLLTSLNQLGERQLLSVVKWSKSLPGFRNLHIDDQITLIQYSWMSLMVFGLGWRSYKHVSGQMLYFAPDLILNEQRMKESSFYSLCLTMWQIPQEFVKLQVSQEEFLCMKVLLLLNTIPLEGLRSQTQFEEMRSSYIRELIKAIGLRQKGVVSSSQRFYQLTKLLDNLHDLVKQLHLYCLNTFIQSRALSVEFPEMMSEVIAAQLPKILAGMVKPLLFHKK

For another assay, the target named is T4, Estrogen receptor (Homo sapiens, UniProt P03372).
T4 sequence (P03372 whole entry): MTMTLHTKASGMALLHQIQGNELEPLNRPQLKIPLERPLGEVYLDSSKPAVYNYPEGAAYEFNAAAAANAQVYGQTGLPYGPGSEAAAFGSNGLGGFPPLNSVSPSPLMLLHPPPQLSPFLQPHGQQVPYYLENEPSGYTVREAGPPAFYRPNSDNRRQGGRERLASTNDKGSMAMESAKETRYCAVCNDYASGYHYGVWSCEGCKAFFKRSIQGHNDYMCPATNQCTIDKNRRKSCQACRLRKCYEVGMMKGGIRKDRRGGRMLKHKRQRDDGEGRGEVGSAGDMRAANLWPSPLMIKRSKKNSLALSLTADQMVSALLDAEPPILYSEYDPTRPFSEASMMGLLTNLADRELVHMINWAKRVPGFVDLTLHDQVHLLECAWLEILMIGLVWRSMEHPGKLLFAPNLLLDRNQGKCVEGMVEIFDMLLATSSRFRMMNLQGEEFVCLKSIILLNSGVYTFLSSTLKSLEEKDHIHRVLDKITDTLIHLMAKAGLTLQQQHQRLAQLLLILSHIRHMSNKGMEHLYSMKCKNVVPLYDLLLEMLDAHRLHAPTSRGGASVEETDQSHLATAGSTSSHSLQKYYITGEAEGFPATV
In kind it is functional.
Further: assay procedure not described here.

On to `CC(C)(Oc1ccc(Cl)cc1)C(=O)OCCOC(=O)c1cccnc1` [ETOFIBRATE], for which the AC50 on Androgen receptor [1] is > 30 µM.

Turning to `Cc1ccc(O)c([C@H](CCN(C(C)C)C(C)C)c2ccccc2)c1` [TOLTERODINE], in assay [2], the AC50 is > 10 µM.

Consider `C[C@]12C=CC(=O)C=C1CC[C@@H]1[C@@H]2[C@@H](O)C[C@@]2(C)[C@H]1CC[C@]2(O)C(=O)CO` [PREDNISOLONE], for which, in assay [3], the AC50 is > 30 µM.

`CN(C)[C@@H]1C(O)=C(C(=O)NCN2CCCC2)C(=O)[C@@]2(O)C(O)=C3C(=O)c4c(O)cccc4[C@@](C)(O)[C@H]3C[C@@H]12` [ROLITETRACYCLINE]: on Androgen receptor [4], the AC50 was found to be 4.35 µM.

For `C[C@]12C=CC(=O)C=C1C(Cl)=C[C@@H]1[C@@H]2[C@@H](O)C[C@@]2(C)[C@H]1CC[C@]2(O)C(=O)CO` [CLOPREDNOL], the AC50 at Androgen receptor [1] was > 30 µM.

As for `N=C(N)NC(=O)c1nc(Cl)c(N)nc1N` [AMILORIDE], the concentration at half-maximal activity (AC50) was > 30 µM at Progesterone receptor, > 10 µM in assay [2] and > 30 µM in assay [3].

For the compound `COc1cccc2c1C(=O)c1c(O)c3c(c(O)c1C2=O)C[C@@](O)(C(=O)CO)C[C@@H]3O[C@H]1C[C@H](N)[C@H](O)[C@H](C)O1` [DOXORUBICIN], the AC50 on Progesterone receptor was 1.7 µM; at Estrogen receptor, > 3 µM.

In the case of `CCC(=O)c1ccc2c(c1)N(CC(C)N(C)C)c1ccccc1S2` (stereo unspecified) [PROPIOMAZINE], on Androgen receptor [4], the AC50 is > 30 µM.

A word on the AC50: it is the concentration at which the activity in the assay is half-maximal. Higher therefore signals activity only at high concentration.

The values are drawn from ChEMBL document CHEMBL5291721, “A preclinical secondary pharmacology resource illuminates target-adverse drug reaction associations of marketed drugs” (Nat Commun, 2023).
